Where two headings read alike, the source gives them in different places.
Key:
neonatal piglets = conditions: cited from earlier work; for lung collagen accumulation: short-term inhaled exposure, neonatal piglets
[1] = system: mice with intratracheal administration of LPS; experiment: LPS-induced lung injury in mice (intratracheal LPS); format: in vivo; conditions: for lung injury: 2% H2 and/or 20 ppm NO for 3 hours starting at 5 minutes or 3 hours after LPS administration; for pulmonary inflammation / cell apoptosis: H2 and/or NO treatment; for cell apoptosis: pulmonary
HIF = conditions: cited from earlier work
NF-κB = experiment: LPS-induced pulmonary NF-κB activation; format: in vivo, mice; conditions: H2 and/or NO treatment
myofibroblasts = conditions: rat, in vivo; cited from earlier work
rats = conditions: inhaled; cited from earlier work
polymicrobial sepsis = experiment: Polymicrobial sepsis-induced lung injury; format: in vivo; conditions: H2 and/or NO treatment
Excerpt: However until applicants' discovery, there has not been a successful combination of hydrogen gas with breathing gas using the claimed apparatus and methods. Applicants have discovered that NO's effect as an antioxidant may be enhanced by eliminating highly reactive by-products of NO inhalation such as peroxynitrite, by adding H2 to inhaled NO gas.

neonatal rats = conditions: compared with control rats; cited from earlier work
[2] = system: brain ischemia-reperfusion (I/R); conditions: inhaled; oxidative stress induced by focal ischemia-reperfusion; cited from earlier work
chrondrocytes = conditions: cited from earlier work

| Structure (SMILES) | lung collagen accumulation (neonatal piglets) | lung injury [1] | pulmonary inflammation [1] | cell apoptosis [1] | effect on HIF (HIF; high doses and after 30 minutes) | effect on HIF (HIF; low dose, for 30 minutes, during hypoxia) | LPS-induced pulmonary early and late NF-κB activation (NF-κB) | collagen synthesis (myofibroblasts) | fibroblast number and differentiation (myofibroblasts) | survival in high O2 exposure (rats) | lung collagen content after recovery (neonatal piglets; after a 3-day recovery period in RA) | lung injury in polymicrobial sepsis (polymicrobial sepsis) | survival of exposure to >95% O2 (neonatal rats) | brain injury [2] | generation of hydroxyl radicals and peroxynitrite (chrondrocytes) |
| --- | --- | --- | --- | --- | --- | --- | --- | --- | --- | --- | --- | --- | --- | --- | --- |
| O=O [O2, oxygen] | increases |  |  |  |  |  |  |  |  |  |  |  |  |  |  |
| [N]=O [NO, nitric oxide] | increases | significantly improved | down-regulated | down-regulated | inhibitory | stimulates | inhibited | inhibiting | reducing | increase survival | significant decline | significantly attenuated |  |  |  |
| COC(=O)[C@@H](N)CCCNC(=N)N[N+](=O)[O-] [Nw-nitro-1-arginine methyl ester] |  |  |  |  |  |  |  |  |  |  |  |  | significantly fewer survived |  |  |
| [HH] [H2, hydrogen] |  | significantly improved | down-regulated | down-regulated |  |  | inhibited |  |  |  |  | significantly attenuated |  | markedly suppressed | selectively reduce |

— US20170165294A1, “METHOD AND APPARATUS FOR ADMINISTERING GASES INCLUDING NITRIC OXIDE TO ADDRESS FIBROSIS” (priority 2015, published 2017)
